Data set [1] can be described thus: refractive index (Na D-line) (dimensionless). The settings on record: 101.33 kPa, Liquid, Standard Abbe refractometry.
For data set [2] the following is noted: 101.33 kPa, Liquid; for speed of sound: Pulse-echo method; for mass density: Vibrating tube method.

Numbers after ± are expanded uncertainties.

For orientation: refractive index means a measure of how strongly the sample bends light. The term speed of sound denotes how fast a sound wave travels through the sample. As usually defined, the mass density is the mass of a sample divided by its volume.

For the molecule `CCn1cc[n+](C)c1.O=S(=O)([O-])C(F)(F)F` [1-ethyl-3-methylimidazolium trifluoromethanesulfonate], the refractive index stood at 1.43599 ± 0.00051 in data set [1] (288.15 K); 1.4332 ± 0.00051 in data set [1] (298.15 K); 1.4304 ± 0.00051 in data set [1] (308.15 K); 1.42767 ± 0.00051 in data set [1] (318.15 K); 1.42494 ± 0.00051 in data set [1] (328.15 K).
Consider `CC(C)=O` [acetone], for which the refractive index in data set [1] (288.15 K) is on record as 1.36146 ± 0.001; in data set [1] (298.15 K), 1.35597 ± 0.001; in data set [1] (308.15 K) it was 1.35054 ± 0.001; in data set [1] (318.15 K), 1.34491 ± 0.001. Besides, the speed of sound in data set [2] (278.15 K) was determined as 1256.5 ± 1.2 m/s; in data set [2] (288.15 K), 1210.7 ± 1.2 m/s; in data set [2] (298.15 K), 1165 ± 1.2 m/s; in data set [2] (308.15 K), 1118.5 ± 1.2 m/s; in data set [2] (318.15 K) it was 1073.7 ± 1.1 m/s. The mass density in data set [2] (278.15 K) was found to be 807.41 ± 0.24 kg/m3; in data set [2] (288.15 K), 796.14 ± 0.24 kg/m3; in data set [2] (298.15 K), 784.76 ± 0.24 kg/m3; in data set [2] (308.15 K), 773.21 ± 0.24 kg/m3; in data set [2] (318.15 K), 761.47 ± 0.24 kg/m3.
As for `CCOC(C)=O` [ethyl acetate], the refractive index stood at 1.37519 ± 0.00037 in data set [1] (288.15 K); 1.36994 ± 0.00037 in data set [1] (298.15 K); 1.3646 ± 0.00037 in data set [1] (308.15 K); 1.35919 ± 0.00037 in data set [1] (318.15 K); 1.35368 ± 0.00037 in data set [1] (328.15 K). In addition, the speed of sound in data set [2] (278.15 K) turned out to be 1231 ± 1.2 m/s; in data set [2] (288.15 K) it was 1185.2 ± 1.2 m/s; in data set [2] (298.15 K) it was 1140 ± 1.2 m/s; in data set [2] (308.15 K) it was 1095.3 ± 1.2 m/s; in data set [2] (318.15 K) it was 1051 ± 1.1 m/s; in data set [2] (328.15 K), 1007.4 ± 1.1 m/s. The mass density in data set [2] (278.15 K) came to 918.5 ± 0.23 kg/m3; in data set [2] (288.15 K), 906.48 ± 0.23 kg/m3; in data set [2] (298.15 K), 894.33 ± 0.23 kg/m3; in data set [2] (308.15 K), 882.02 ± 0.23 kg/m3; in data set [2] (318.15 K), 869.52 ± 0.23 kg/m3; in data set [2] (328.15 K), 856.85 ± 0.23 kg/m3.
For `COC(C)=O` [methyl ethanoate], the refractive index in data set [1] (288.15 K) was determined as 1.36414 ± 0.00033; in data set [1] (298.15 K), 1.35881 ± 0.00033; in data set [1] (308.15 K) it was 1.35367 ± 0.00033; in data set [1] (318.15 K), 1.34823 ± 0.00033. Moreover, the speed of sound in data set [2] (278.15 K) came out at 1243.5 ± 0.81 m/s; in data set [2] (288.15 K), 1196.8 ± 0.8 m/s; in data set [2] (298.15 K), 1150.7 ± 0.78 m/s; in data set [2] (308.15 K), 1104.7 ± 0.77 m/s; in data set [2] (318.15 K), 1059.2 ± 0.75 m/s. Besides, the mass density in data set [2] (278.15 K) was found to be 953.04 ± 0.09 kg/m3; in data set [2] (288.15 K), 940.12 ± 0.1 kg/m3; in data set [2] (298.15 K), 927.01 ± 0.1 kg/m3; in data set [2] (308.15 K), 913.68 ± 0.11 kg/m3; in data set [2] (318.15 K) it was 900.13 ± 0.11 kg/m3.

The values are drawn from the NIST ThermoML archive (doi:10.1021/je9005618).
